Numbers after ± are expanded uncertainties.
Experiment: mn = molality of the nth substance listed, in mol/kg
Details: Liquid, Vibrating tube method

[Br-].[Li+] [lithium bromide] + CCO
mass density (293.15 K, 1024 kPa, m1 = 2.833): 956.08 ± 1.9 kg/m3 | mass density (293.15 K, 1034 kPa, m1 = 0.9499): 850.27 ± 1.7 kg/m3 | mass density (293.15 K, 5015 kPa, m1 = 3.368): 986.33 ± 2 kg/m3 | mass density (293.15 K, 5029 kPa, m1 = 0.9499): 853.2 ± 1.7 kg/m3 | mass density (293.15 K, 5201 kPa, m1 = 2.833): 959.11 ± 1.9 kg/m3 | mass density (293.15 K, 10003 kPa, m1 = 0.2335): 812.89 ± 1.6 kg/m3 | mass density (293.15 K, 10032 kPa, m1 = 2.833): 962.5 ± 1.9 kg/m3 | mass density (293.15 K, 10041 kPa, m1 = 0.9499): 856.81 ± 1.7 kg/m3 | mass density (293.15 K, 10061 kPa, m1 = 0.5972): 835.46 ± 1.7 kg/m3 | mass density (293.15 K, 19924 kPa, m1 = 0.9499): 863.69 ± 1.7 kg/m3 | mass density (293.15 K, 20003 kPa, m1 = 0.2335): 820.16 ± 1.7 kg/m3 | mass density (293.15 K, 20038 kPa, m1 = 3.368): 996.51 ± 2 kg/m3 | mass density (293.15 K, 29895 kPa, m1 = 0.9499): 870.31 ± 1.8 kg/m3 | mass density (293.15 K, 29978 kPa, m1 = 3.368): 1002.69 ± 2 kg/m3 | mass density (293.15 K, 29993 kPa, m1 = 0.5972): 849.31 ± 1.7 kg/m3 | mass density (293.15 K, 39912 kPa, m1 = 0.5972): 855.69 ± 1.7 kg/m3 | mass density (293.15 K, 39956 kPa, m1 = 0.2335): 833.59 ± 1.7 kg/m3 | mass density (293.15 K, 39985 kPa, m1 = 2.833): 981.35 ± 2 kg/m3 | mass density (293.15 K, 40003 kPa, m1 = 0.9499): 876.7 ± 1.8 kg/m3 | mass density (293.15 K, 49936 kPa, m1 = 3.368): 1014.01 ± 2 kg/m3 | mass density (293.15 K, 49993 kPa, m1 = 0.5972): 861.83 ± 1.8 kg/m3 | mass density (293.15 K, 50002 kPa, m1 = 0.9499): 882.7 ± 1.8 kg/m3 | mass density (293.15 K, 59924 kPa, m1 = 0.2335): 845.57 ± 1.8 kg/m3 | mass density (293.15 K, 60001 kPa, m1 = 2.833): 992.24 ± 2 kg/m3 | mass density (293.15 K, 60032 kPa, m1 = 0.9499): 888.39 ± 1.8 kg/m3 | mass density (293.15 K, 70032 kPa, m1 = 2.833): 997.31 ± 2 kg/m3 | mass density (293.15 K, 70102 kPa, m1 = 0.9499): 893.78 ± 1.8 kg/m3 | mass density (293.15 K, 79914 kPa, m1 = 1.462): 928.13 ± 1.9 kg/m3 | mass density (293.15 K, 79926 kPa, m1 = 0.2335): 856.13 ± 1.8 kg/m3 | mass density (293.15 K, 79956 kPa, m1 = 0.9499): 898.74 ± 1.8 kg/m3 | mass density (293.15 K, 79956 kPa, m1 = 2.833): 1002.13 ± 2 kg/m3 | mass density (293.15 K, 80104 kPa, m1 = 3.368): 1029.17 ± 2.1 kg/m3 | mass density (293.15 K, 89245 kPa, m1 = 0.9499): 903.13 ± 1.9 kg/m3 | mass density (293.15 K, 89926 kPa, m1 = 0.5972): 882.72 ± 1.8 kg/m3 | mass density (293.15 K, 89954 kPa, m1 = 0.2335): 860.88 ± 1.8 kg/m3 | mass density (293.15 K, 89958 kPa, m1 = 2.833): 1006.83 ± 2 kg/m3 | mass density (293.15 K, 89963 kPa, m1 = 1.462): 932.84 ± 1.9 kg/m3 | mass density (293.15 K, 89989 kPa, m1 = 3.368): 1033.84 ± 2.1 kg/m3 | mass density (293.15 K, 99824 kPa, m1 = 1.462): 937.16 ± 1.9 kg/m3 | mass density (293.15 K, 99895 kPa, m1 = 3.368): 1038.46 ± 2.1 kg/m3 | mass density (293.15 K, 99965 kPa, m1 = 0.9499): 907.85 ± 1.9 kg/m3 | mass density (293.15 K, 99965 kPa, m1 = 2.833): 1011.42 ± 2 kg/m3 | mass density (293.15 K, 99986 kPa, m1 = 0.2335): 865.27 ± 1.8 kg/m3 | mass density (293.16 K, 1250 kPa, m1 = 3.368): 983.6 ± 2 kg/m3 | mass density (293.16 K, 19905 kPa, m1 = 0.5972): 842.47 ± 1.7 kg/m3 | mass density (293.16 K, 29938 kPa, m1 = 2.833): 975.41 ± 1.9 kg/m3 | mass density (293.16 K, 39654 kPa, m1 = 3.368): 1008.34 ± 2 kg/m3 | mass density (293.16 K, 69784 kPa, m1 = 0.2335): 850.96 ± 1.8 kg/m3 | mass density (293.16 K, 99971 kPa, m1 = 0.5972): 887.12 ± 1.9 kg/m3 | mass density (293.17 K, 1430 kPa, m1 = 2.272): 926.33 ± 1.9 kg/m3 | mass density (293.17 K, 1504 kPa, m1 = 0.5972): 829.09 ± 1.7 kg/m3 | mass density (293.17 K, 4902 kPa, m1 = 2.272): 928.89 ± 1.9 kg/m3 | mass density (293.17 K, 4938 kPa, m1 = 0.5972): 831.68 ± 1.7 kg/m3 | mass density (293.17 K, 10030 kPa, m1 = 2.272): 932.58 ± 1.9 kg/m3 | mass density (293.17 K, 19789 kPa, m1 = 2.272): 939.24 ± 1.9 kg/m3 | mass density (293.17 K, 29946 kPa, m1 = 2.272): 945.75 ± 1.9 kg/m3 | mass density (293.17 K, 40161 kPa, m1 = 2.272): 951.9 ± 1.9 kg/m3 | mass density (293.17 K, 49963 kPa, m1 = 2.272): 957.45 ± 1.9 kg/m3 | mass density (293.17 K, 89964 kPa, m1 = 2.272): 977.54 ± 2 kg/m3 | mass density (293.17 K, 99958 kPa, m1 = 2.272): 982.14 ± 2 kg/m3 | mass density (293.18 K, 60025 kPa, m1 = 2.272): 962.8 ± 1.9 kg/m3 | mass density (293.18 K, 69979 kPa, m1 = 2.272): 967.88 ± 1.9 kg/m3 | mass density (293.19 K, 79838 kPa, m1 = 2.272): 972.67 ± 2 kg/m3 | mass density (298.09 K, 1141 kPa, m1 = 0.5972): 824.73 ± 1.6 kg/m3 | mass density (298.1 K, 99589 kPa, m1 = 2.272): 978.52 ± 2 kg/m3 | mass density (298.11 K, 60144 kPa, m1 = 1.462): 914.77 ± 1.9 kg/m3 | mass density (298.12 K, 39801 kPa, m1 = 1.462): 902.81 ± 1.8 kg/m3 | mass density (298.12 K, 39933 kPa, m1 = 2.272): 947.93 ± 1.9 kg/m3 | mass density (298.12 K, 49922 kPa, m1 = 1.462): 908.93 ± 1.8 kg/m3 | mass density (298.12 K, 49993 kPa, m1 = 2.272): 953.69 ± 1.9 kg/m3 | mass density (298.12 K, 60039 kPa, m1 = 2.272): 959.15 ± 1.9 kg/m3 | mass density (298.12 K, 99737 kPa, m1 = 3.368): 1034.98 ± 2.1 kg/m3 | mass density (298.13 K, 5308 kPa, m1 = 1.462): 879.29 ± 1.8 kg/m3 | mass density (298.13 K, 59998 kPa, m1 = 0.5972): 864.41 ± 1.8 kg/m3 | mass density (298.13 K, 69983 kPa, m1 = 2.272): 964.25 ± 1.9 kg/m3 | mass density (298.13 K, 80661 kPa, m1 = 3.368): 1025.85 ± 2.1 kg/m3 | mass density (298.13 K, 89925 kPa, m1 = 2.272): 973.93 ± 2 kg/m3 | mass density (298.13 K, 89985 kPa, m1 = 3.368): 1030.35 ± 2.1 kg/m3 | mass density (298.14 K, 5004 kPa, m1 = 2.833): 954.84 ± 1.9 kg/m3 | mass density (298.14 K, 20004 kPa, m1 = 0.2335): 816.39 ± 1.6 kg/m3 | mass density (298.14 K, 30021 kPa, m1 = 2.833): 971.59 ± 1.9 kg/m3 | mass density (298.14 K, 70023 kPa, m1 = 2.833): 993.85 ± 2 kg/m3 | mass density (298.14 K, 79924 kPa, m1 = 0.2335): 853.09 ± 1.8 kg/m3 | mass density (298.15 K, 1023 kPa, m1 = 2.833): 951.93 ± 1.9 kg/m3 | mass density (298.15 K, 1045 kPa, m1 = 0.9499): 845.75 ± 1.7 kg/m3 | mass density (298.15 K, 1204 kPa, m1 = 0.2335): 801.78 ± 1.6 kg/m3 | mass density (298.15 K, 5002 kPa, m1 = 0.2335): 805.08 ± 1.6 kg/m3 | mass density (298.15 K, 5004 kPa, m1 = 0.9499): 848.93 ± 1.7 kg/m3 | mass density (298.15 K, 5221 kPa, m1 = 0.5972): 827.89 ± 1.7 kg/m3 | mass density (298.15 K, 10024 kPa, m1 = 0.9499): 852.82 ± 1.7 kg/m3 | mass density (298.15 K, 10064 kPa, m1 = 0.2335): 808.99 ± 1.6 kg/m3 | mass density (298.15 K, 19935 kPa, m1 = 2.833): 965.15 ± 1.9 kg/m3 | mass density (298.15 K, 19956 kPa, m1 = 0.9499): 860.13 ± 1.7 kg/m3 | mass density (298.15 K, 29124 kPa, m1 = 0.2335): 822.86 ± 1.7 kg/m3 | mass density (298.15 K, 29945 kPa, m1 = 0.9499): 866.97 ± 1.8 kg/m3 | mass density (298.15 K, 29950 kPa, m1 = 2.272): 941.76 ± 1.9 kg/m3 | mass density (298.15 K, 29993 kPa, m1 = 0.5972): 845.75 ± 1.7 kg/m3 | mass density (298.15 K, 29993 kPa, m1 = 1.462): 896.53 ± 1.8 kg/m3 | mass density (298.15 K, 39784 kPa, m1 = 0.9499): 873.28 ± 1.8 kg/m3 | mass density (298.15 K, 39830 kPa, m1 = 0.5972): 852.23 ± 1.7 kg/m3 | mass density (298.15 K, 39845 kPa, m1 = 2.833): 977.51 ± 2 kg/m3 | mass density (298.15 K, 49956 kPa, m1 = 0.2335): 836.44 ± 1.7 kg/m3 | mass density (298.15 K, 49963 kPa, m1 = 0.5972): 858.53 ± 1.8 kg/m3 | mass density (298.15 K, 50012 kPa, m1 = 0.9499): 879.42 ± 1.8 kg/m3 | mass density (298.15 K, 59968 kPa, m1 = 2.833): 988.68 ± 2 kg/m3
